According to patent US20100285053A1, “Immunosuppressive Extract Of Cordyceps Sinensis And Uses Thereof” (Dalhousie University, priority 2006, published 2010):

Assays:
Adherent macrophages = assay: Effect of MAPK inhibitors on IL-6 production by stimulated macrophages; format: cell-based, murine; details: 25 μM inhibitor 30 min pre-incubation, then ACE 3.4 mg/mL 48 hours
Experimental: Adherent macrophages were pre-incubated with media, vehicle (0.06% DMSO; Sigma), 25 μM ERK inhibitor, (PD98059; Calbiochem), or 25 μM p38 inhibitor (SB203580; Calbiochem) for 30 min at 37° C. before being treated with test agent. The cells were further incubated for 48 hours with ACE (3.4 mg/mL) or Zymosan (0.01%). DMSO was used as a vehicle control. IL-6 production was assayed using ELISA.

[1] = test system: Peritoneal elicited macrophages; assay: Endotoxin test: Polymyxin B pre-treatment, IL-6 production by macrophages; format: cell-based; details: Polymyxin B 20 μg/ml 30 min, then LPS 10 ηg/ml
Experimental: To test for LPS contamination, macrophages were pre-treated with Polymyxin B, followed by incubation with ACE. Peritoneal elicited macrophages were pre-incubated with media or LPS inhibitor Polymyxin B (Calbiochem) at 20 μg/ml for 30 min at 37° C. Cells were further incubated with LPS (10 ηg/ml) or ACE (3.4 mg/ml). […] Results are shown as levels of IL-6 production, which were measured using ELISA. Means and standard deviations of triplicate samples are shown. Data are representative of three separate experiments.

| Compound | IL-6 production by ACE treated macrophages in presence of inhibitor (Adherent macrophages) | reduction of LPS activity (IL-6 production) [1] [%] |
| --- | --- | --- |
| C[S+]([O-])c1ccc(-c2nc(-c3ccncc3)c(-c3ccc(F)cc3)[nH]2)cc1 (stereo not drawn) [SB203580] | marked decreases of IL-6 production |  |
| Polymyxin B |  | ~80 |
| COc1cccc(-c2cc(=O)c3ccccc3o2)c1N [PD98059] | marked decreases of IL-6 production |  |
